Results: patent US9044454B2, “Regulation of microvasculature occlusion” (NORTHWESTERN UNIVERSITY, priority 2010, dated 2015)

What was measured:
[1] = tested on: U87 cancer cells (glioma model) tumor in mice; assay: Inhibition of recanalization in U87 tumors embolized with microspheres; type: in vivo
Protocol: Mice cerebral vasculatures were embolized by intravascular infusion with either (15 micron microspheres+2 mg/ml ML-7 solution) or (15 micron microspheres+vehicle) followed by daily intra-peritoneal injection of ML-7. 14 days later brain tissues were collected and vessels were labeled with fluorescein lectin. The proportion of recanalized occlusions was assessed from 50 randomly selected microsphere in each group.
U87 cancer cells, which model glioma, were implanted in mice to create a tumor. Tumors were embolized by intravascular infusion with either (15 micron microspheres+2 mg/ml ML-7 solution) or (15 micron microspheres+vehicle). 7 days later brain tissues were collected and vessels were labeled with anti CD 31 antibodies. Cell death marker caspase 3 was labeled with anti caspase 3 antibody. Without ML-7 to inhibit extravasation of emboli, individual emboli cause a moderate amount of caspase upregulation and tumor blood vessels are recanalized re-establishing blood flow to the tumor. […] The proportion of recanalized occlusions was assessed for each group.

[2] = tested on: mice embolized with fibrin clots or microspheres (cerebral microvasculature); assay: Measurement of embolus extravasation in MMP 2/9 inhibitor injected embolized mice; type: in vivo, mouse
Excerpt: To induce cerebral embolization fluorescently conjugated fibrin clots, cholesterol emboli (8-20 μm in diameter) or polystyrene microspheres (10 or 15 μm in diameter) were infused through the mouse internal carotid artery. Emboli were imaged in fixed tissues by confocal microscopy after vessel labeling by I.V. injection of FITC-lycopersicom esculentum, thioflavin-S or immunolabeled with anti-PECAM-1, collagen IV or ZO-1 antibodies. Emboli were also imaged overtime in vivo by transcranial two-photon microscopy (TPM) in mice expressing GFP in endothelial cells (Tie2-GFP) or wild type mice injected with thioflavin-S I.V. Blood flow velocity was recorded by line scan TPM imaging to verify microvascular occlusion and reestablishment of flow. […] Quantification of extravasation efficiency was performed from confocal images in fixed brain slices and in a subset of experiments from in vivo TPM time-lapse images. Matrix metalloprotease 2/9 (MMP2/9) activity was measured in areas adjacent to emboli using fluorescent in situ zymography methods. […] Perivascular hypoxia was detected by administration and immunohistochemical detection of hypoxyprobe. Dendritic spine density was quantified in confocal image stacks of fixed brain slices from mice expressing YFP in a subset of pyramidal neurons. […]

[3] = 15 micron microspheres + 2 mg/ml ML-7 solution vs vehicle, FIG. 3

| SMILES | cell death marker Caspase-3 within the cancer ([1]; 15 micron microspheres + 2 mg/ml ML-7 solution vs microspheres + vehicle, intravascular infusion, 7 days) | extravasated emboli [1, 3] | proportion of recanalized occlusions (occluded vessels re-canalized) [1, 3] | extravasation of clot fragments ([2]; fibrin clot-embolized mice, SB-3CT 20 mg/kg/day i.p. vs saline, 4 days) | microsphere extravasation ([2]; microsphere-embolized mice, SB-3CT i.p. daily 2, 10, 20 mg/kg/day or acutely 40 mg/kg vs saline, 14 days post-embolization) |
| --- | --- | --- | --- | --- | --- |
| O=S(=O)(c1cccc2c(I)cccc12)N1CCCNCC1 [ML-7] | broad upregulation | less extravasated emboli | fewer of occluded vessels had been re-canalized | – | – |
| O=S(=O)(CC1CS1)c1ccc(Oc2ccccc2)cc1 (centres unmarked) [SB-3CT] | – | – | – | marked reduction | substantial reduction |
